The results in this text go back to ChEMBL document CHEMBL1154034, “Piperazinyl-glutamate-pyridines as potent orally bioavailable P2Y12 antagonists for inhibition of platelet aggregation” (Bioorg Med Chem Lett, 2009).

Each structure is given as a SMILES string. pKi: −log10 of the molar value.

The pKi is −log10 of the Ki, conventionally taken in molar units.

For this test, the target named is P2Y purinoceptor 12 (Homo sapiens, UniProt Q9H244). The test can be described thus: Binding affinity to human recombinant P2Y12 receptor expressed in CHO cells. It is filed as cell-based.
Chain of P2Y purinoceptor 12 (Q9H244 whole entry): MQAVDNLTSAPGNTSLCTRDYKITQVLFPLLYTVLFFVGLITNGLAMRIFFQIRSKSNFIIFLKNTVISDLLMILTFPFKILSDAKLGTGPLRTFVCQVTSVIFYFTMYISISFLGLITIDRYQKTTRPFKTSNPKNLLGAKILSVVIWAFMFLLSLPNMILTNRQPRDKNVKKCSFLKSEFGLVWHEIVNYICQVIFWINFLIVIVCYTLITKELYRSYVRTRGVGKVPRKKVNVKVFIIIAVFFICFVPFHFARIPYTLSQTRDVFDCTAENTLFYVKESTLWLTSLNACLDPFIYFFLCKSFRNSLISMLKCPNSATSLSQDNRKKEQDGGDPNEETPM
As for `CCOC(=O)N1CCN(C(=O)[C@H](CCC(=O)O)NC(=O)c2cc(OCc3ccccc3)cc(-c3ccccc3)n2)CC1`, the pKi is 7.55.

For the molecule `CCCCOC(=O)N1CCN(C(=O)[C@H](CCC(=O)O)NC(=O)c2cccc(-c3ccccc3)n2)CC1`, the pKi was 7.54.

`CCOC(=O)N1CCN(C(=O)[C@H](CCC(=O)O)NC(=O)c2cc(OCCO)cc(-c3ccccc3)n2)CC1`: the pKi was 6.80.

In the case of `CCCOC(=O)N1CCN(C(=O)[C@H](CCC(=O)O)NC(=O)c2cccc(-c3ccccc3)n2)CC1`, the pKi was 7.57.

In the case of `CCOC(=O)N1CCN(C(=O)[C@H](CCC(=O)O)NC(=O)c2cc(OCCCN)cc(-c3ccccc3)n2)CC1`, the pKi was 6.67.

As for `CCOC(=O)N1CCN(C(=O)[C@H](CCC(=O)O)NC(=O)c2cc(NCCOC)cc(-c3ccccc3)n2)CC1`, the pKi is 7.00.

Consider `NCC1CCN(c2cc(C(=O)N[C@@H](CCC(=O)O)C(=O)N3CCN(C(=O)OCCC4CCCC4)CC3)nc(-c3ccccc3)c2)CC1`, for which the pKi was 7.16.

With `CCCCCCOC(=O)N1CCN(C(=O)[C@H](CCC(=O)O)NC(=O)c2cc(N3CCC(COC)CC3)cc(-c3ccccc3)n2)CC1`, the negative-log Ki (pKi) was 7.48.

Take `CCCCOc1cc(C(=O)N[C@@H](CCC(=O)O)C(=O)N2CCN(C(=O)OCC)CC2)nc(-c2ccccc2)c1`: the pKi was 7.41.

Regarding `COCCOc1cc(C(=O)N[C@@H](CCC(=O)O)C(=O)N2CCN(C(=O)OC(C)C)CC2)nc(-c2ccccc2)c1`, the pKi is 6.72.

`C=CCOC(=O)N1CCN(C(=O)[C@H](CCC(=O)O)NC(=O)c2cc(OCCOC)cc(-c3ccccc3)n2)CC1`: the pKi is 7.02.

On to `CCCCCOC(=O)N1CCN(C(=O)[C@H](CCC(=O)O)NC(=O)c2cc(OCCO)cc(-c3ccccc3)n2)CC1`, for which the pKi was 7.49.

In the case of `C=CCOC(=O)N1CCN(C(=O)[C@H](CCC(=O)O)NC(=O)c2cc(OC3CCNCC3)cc(-c3ccccc3)n2)CC1`, the pKi was 7.03.

Take `CCCCCOC(=O)N1CCN(C(=O)[C@H](CCC(=O)O)NC(=O)c2cc(OCCCC)cc(-c3ccccc3)n2)CC1`: the pKi is 7.31.

For the molecule `CCOC(=O)N1CCN(C(=O)[C@H](CCC(=O)O)NC(=O)c2cc(OCCOC)cc(-c3ccccc3)n2)CC1`, the negative logarithm of the Ki (pKi) was 7.04.

As for `C=CCOC(=O)N1CCN(C(=O)[C@H](CCC(=O)O)NC(=O)c2cc(OCCO)cc(-c3ccccc3)n2)CC1`, the pKi was 6.69.

On to `COC(=O)N1CCN(C(=O)[C@H](CCC(=O)O)NC(=O)c2cccc(-c3ccccc3)n2)CC1`, for which the pKi was 5.61.

Consider `CCCCCCCCOC(=O)N1CCN(C(=O)[C@H](CCC(=O)O)NC(=O)c2cccc(-c3ccccc3)n2)CC1`, for which the pKi is 7.85.

Turning to `CCOC(=O)N1CCN(C(=O)[C@H](CCC(=O)O)NC(=O)c2cc(N3CCC(CN)CC3)cc(-c3ccccc3)n2)CC1`, the pKi is 7.85.

As for `CCCCCCOC(=O)N1CCN(C(=O)[C@H](CCC(=O)O)NC(=O)c2cc(N3CCC(O)CC3)cc(-c3ccccc3)n2)CC1`, the pKi was 7.62.

For `O=C(O)CC[C@H](NC(=O)c1cc(N2CCC(O)CC2)cc(-c2ccccc2)n1)C(=O)N1CCN(C(=O)OCCC2CCCC2)CC1`, the pKi is 7.40.

`CCCCCOC(=O)N1CCN(C(=O)[C@H](CCC(=O)O)NC(=O)c2cc(OCCOC)cc(-c3ccccc3)n2)CC1`: the pKi was 8.00.

In the case of `CCOC(=O)N1CCN(C(=O)[C@H](CCC(=O)O)NC(=O)c2cc(OCCCO)cc(-c3ccccc3)n2)CC1`, the pKi is 7.17.

Turning to `CCOC(=O)N1CCN(C(=O)[C@H](CCC(=O)O)NC(=O)c2cc(NCc3ccccc3)cc(-c3ccccc3)n2)CC1`, the negative logarithm of the Ki (pKi) was 7.59.

Regarding `CCOC(=O)N1CCN(C(=O)[C@H](CCC(=O)O)NC(=O)c2cc(N3CCC(O)CC3)cc(-c3ccccc3)n2)CC1`, the negative-log Ki (pKi) is 7.38.

On to `CCOC(=O)N1CCN(C(=O)[C@H](CCC(=O)O)NC(=O)c2cc(OCCN)cc(-c3ccccc3)n2)CC1`, for which the pKi was 6.48.

With `CCOC(=O)N1CCN(C(=O)[C@H](CCC(=O)O)NC(=O)c2cc(NCCO)cc(-c3ccccc3)n2)CC1`, the negative-log Ki (pKi) is 6.94.

As to `CCOC(=O)N1CCN(C(=O)[C@H](CCC(=O)O)NC(=O)c2cc(N(CC)CC)cc(-c3ccccc3)n2)CC1`, the pKi is 7.64.
